Assay results taken from US11752099B2, “Injectable and biodegradable polymer formulations for controlled release of bioactive agents” (W. L. Gore & Associates, Inc., priority 2017, dated 2023).

Test system: eyes of an animal subject
Conditions: in vivo
Description: The copolymer PLA:GA Resomer® RG 756 S, Poly(D,L-lactide-co-glycolide) purchased from Evonik Industries, Germany, was dissolved in 11 g of triacetin (Sigma-Aldrich, St. Louis) in 25 ml glass vials to obtain approximately a 6% solution by maintaining the mixture on a stir plate with a magnetic stir bar. The molecular weight was 76,000 for the PLGA polymer. The solution was processed aseptically through a 0.2 μm sterile filter into 1 ml syringes. Each syringe contained approximately 200 μl of formulation.
The polymer formulations were delivered into the eyes of an animal subject and each eye only received a single injection. […] The in-life period of the polymer formulation injections was approximately 90 days. Approximately every week the intraocular pressure (IOP) was measured.
At retrieval, the eyes were examined and inter ocular pressure (IOP) was obtained. The eyes were gently removed, examined, and fixed in Davidson's Solution for a minimum of 24 hours. Post fixation, the eyes were processed for histological analyses.
The tissue samples were processed to yield histological slides and were examined under microscope for inflammation. […]

Substance: D/L-PLA:TMC:PGA [Example 17]
- IOP immediately post-op: much higher than the baseline
- average normalized IOP values, relative to baseline before implantation (FIG. 10): ≤ 100%
- inflammation on histological slides: no inflammation was noted
- time for immediate rise in IOP to return to normal values: ≤ 30 min
- visual examination of the eyes at retrieval: no abnormalities observed
- visual inspection with an ophthalmoscope (redness of the retina): no redness of the retina

Substance: Poly(D,L-lactide-co-glycolide) [Resomer® RG 756 S, reference compound]
- IOP immediately post-op: much higher than the baseline
- average normalized IOP values, relative to baseline before implantation (FIG. 10): above 100%
- inflammation on histological slides: revealed inflammation
- time for immediate rise in IOP to return to normal values: ≤ 30 min
- visual inspection with an ophthalmoscope (redness of the retina): redness of the retina, a sign of inflammation, in one observation
